Data reported in article PMC10780275, “Evaluation of Anti-Trypanosoma cruzi Activity of Chemical Constituents from Baccharis sphenophylla Isolated Using High-Performance Countercurrent Chromatography” (Molecules, 2023).
Where two headings read alike, the source gives them in different places.

Assays:
[1] = test system: T. cruzi amastigote; assay: Activity against intracellular amastigotes of T. cruzi within infected macrophages (Giemsa, light microscope, 48 h); type: cell-based, Trypanosoma cruzi (Y strain); details: for EC50: Trypanosoma cruzi, Peritoneal macrophage, in Mus musculus, read-out: T. cruzi Amastigote EC50 (μM) ± SD
Source text: The experimental animals were sourced from the animal breeding facility located at Instituto Adolfo Lutz in São Paulo State, Brazil. Peritoneal macrophages were extracted from female BALB/c mice for intracellular experiments, while male BALB/c mice were utilized to sustain T. cruzi. These animals were provided unlimited access to both water and food, residing in sterilized enclosures within a meticulously regulated environment. All procedures were previously approved by the Animal Ethics Commission of Instituto Adolfo Lutz.
(§1) NCTC cells (clone 929, ATCC) were cultured in RPMI-1640 supplemented with 10% of fetal bovine serum (FBS), at 37 °C within a 5% CO2-humidified incubator. To collect peritoneal macrophages, the abdominal cavity of female BALB/c mice was rinsed with an RPMI-1640 medium, containing 10% FBS. These macrophages were then cultured overnight at 37 °C in a 5% CO2-humidified incubator. Trypanosoma cruzi trypomastigotes (Y strain) were maintained within Rhesus monkey kidney epithelial cells (LLC-MK2) cells using an RPMI-1640 medium supplemented with 2% FBS, and the incubation took place at 37 °C with 5% CO2 and humidity.
The EC50 values for compounds 1–8 against intracellular amastigotes of T. cruzi were determined within infected macrophages. Macrophages, obtained as detailed in item 4.9, were seeded onto a 16-well chamber slide (NUNC plate, Thermo Fisher, Waltham, MA, USA) at a density of 1 × 10^5 cells per well. Subsequently, these cell cultures were incubated overnight at 37 °C in a humidified incubator containing 5% CO2. Trypomastigotes, previously derived from infected LLC-MK2 cells, underwent washing in an RPMI-1640 medium, were quantified, and were then employed to infect the macrophages at a concentration of 1 × 10^6 trypomastigotes per well. Following a 2 h infection period, any non-internalized trypomastigotes were eliminated by rinsing with an RPMI medium. The compounds were subsequently exposed to the infected macrophages for 48 h at 37 °C within a 5% CO2 environment. A range of serial dilutions (ranging from 30.00 to 1.87 μM) were used for the incubation of compounds, and benznidazole was utilized as the standard drug. At the final stage of the experiment, the chamber slides were fixed using MeOH and stained with Giemsa before being assessed under a light microscope (Thermo EVOS M5000).
(§2) The CC50 and EC50 values were derived through the analysis of sigmoidal dose–response curves using GraphPad Prism 6.0 software. The samples were subjected to duplicate testing, and the experiments were replicated a minimum of two times.

[2] = Cytotoxicity against mammalian NCTC cells (MTT assay, 48 h); type: cell-based; details: mouse, NCTC murine fibroblasts, highest tested concentration 200 μM, read-out: NCTC Mammalian Cell CC50 (μM) ± SD
Experimental: as §1
The determination of CC50 (50% cytotoxic concentration) values for compounds 1–8 was conducted using NCTC cells (L929 clone). These cells were seeded at a density of 6 × 10^4 cells per well in 96-well plates (Thermo Fisher). The cells were then exposed to a series of compound dilutions, ranging from 200 to 1.56 µM, and incubated for 48 h at 37 °C within a 5% CO2-equipped incubator. The viability of the cells and CC50 values were determined using 3-(4,5-dimethylthiazol-2-yl)-2,5-diphenyltetrazolium bromide (MTT) assay. Subsequently, the absorbance was measured at 570 nm using the FilterMax F5 instrument from Molecular Devices. The selectivity index (SI) was determined as the ratio between the CC50 against NCTC cells and the EC50 against trypomastigotes or amastigotes.
as §2

[3] = test system: T. cruzi trypomastigote; assay: Activity against trypomastigote forms of T. cruzi (resazurin viability, 24 h); type: cell-based, Trypanosoma cruzi (Y strain); details: trypomastigotes, serial dilutions 1.7 to 150 μM; for EC50: Trypanosoma cruzi, read-out: T. cruzi Trypomastigote EC50 (μM) ± SD
Experimental: as §1
Tests of the activity from compounds 1–8 against the trypomastigote form of T. cruzi was performed, according to procedures previously reported. Trypomastigotes, in a concentration of 1 × 10^6 parasites/well, were seeded in 96-well plates and incubated with the tested compounds, alongside the standard drug benznidazole, in serial dilutions ranging from 1.7 to 150 μM, for 24 h at 37 °C in a 5% CO2 incubator. Subsequently, 20 μL of 10% resazurin was added, in order to determine cell viability. Absorbance was read in a plate spectrofluorometer Filter Max F5 Multi-Mode Microplate Reader at 570 nm. Untreated cells were used as negative controls, and cells treated with benznidazole were used as positive controls. The 50% effective concentration (EC50) against trypomastigote forms was determined by the regression of a sigmoid dose–response curve expressed in μM.
as §2

[4] = intracellular amastigotes in BALB/c peritoneal macrophages, serial dilutions 30.00 to 1.87 μM
[5] = NCTC cells (clone L929) fibroblasts

Compound | T. cruzi Amastigote EC50 (μM) ± SD [1, 4] | EC50 [3] [µM] | EC50 [1, 4] [µM] | CC50 at 48 h [2] [µM] | CC50 at 48 h [2, 5] [µM] | T. cruzi Trypomastigote EC50 (μM) ± SD [3] | EC50 [1] [µM]
C=C1C[C@@]23CC[C@H]4[C@@](C)(CCC[C@@]4(C)C(=O)O)[C@@H]2CC[C@@H]1C3 [Compound 3, Ent-kaur-16-en-19-oic acid] | inactive | 10.6 ± 4.4 |  | > 200 |  |  | 
COc1c(O)cc2oc(-c3ccc(O)cc3)cc(=O)c2c1O [Compound 4, Hispidulin] |  |  |  | > 200 |  | no activity | 12.8 ± 0.3
COC1C[C@@H](CC[C@@H]2[C@@H](C)CC=C3C(CO)(CO)CCC[C@@]32C)CO1 (relative stereo) [Compound 1, 15,16-epoxy-18,19-dihydroxy-16-methoxy-syn-labd-5-ene] | inactive | 20.1 ± 1.5 |  |  | > 200 |  | 

Further lines, with some results ahead:

T. cruzi Amastigote EC50 (μM) ± SD [1, 4] | EC50 [3] [µM] | EC50 [1, 4] [µM] | Compound | CC50 at 48 h [2] [µM] | CC50 at 48 h [2, 5] [µM] | T. cruzi Trypomastigote EC50 (μM) ± SD [3] | EC50 [1] [µM]
 | 18.7 ± 4.1 | 5.5 ± 2.2 | O=C(Cn1ccnc1[N+](=O)[O-])NCc1ccccc1 [Benznidazole, benznidazole, reference compound] |  | > 200 |  | 
 |  | 2.7 ± 0.2 | COc1c(O)cc2oc(-c3ccc(O)c(O)c3)cc(=O)c2c1O [Compound 5, Eupafolin] |  |  | no activity | 
inactive | 2.9 ± 1.5 |  | C[C@H]1CC=C2C(CO)(CO)CCC[C@]2(C)[C@@H]1CC[C@H](CCO)COC(=O)/C=C/c1ccc(O)cc1 [Compound 2, gaudichaudol C] |  | > 200 |  | 
